Test results as given in patent publication US20140079836A1, “METHODS AND COMPOSITIONS FOR ALTERING HEALTH, WELLBEING, AND LIFESPAN” (LifeSpan Extension, LLC, priority 2008, published 2014).

Test system: Custom Array II Genes
Assay: Custom Array II gene expression, antioxidant alone or + UVB
Format: cell-based
Details: + UVB

## COC1=C(OC)C(=O)C(CCCCCCCCCCO)=C(C)C1=O [Idebenone, 6-(10-hydroxydecyl)-2,3-dimethoxy-5-methyl-1,4-benzoquin-one]
  ACE (NM_000789) Expression: −1.1
  ACTB (NM_001101) Expression: −1.1
  APOE (NM_000041) Expression: −1.2
  BAX (NM_004324) Expression: 1.3
  BCL2 (NM_000633) Expression: 1.6
  BCL2L1 (NM_138578) Expression: 1.0
  BMP2 (NM_001200) Expression: −1.7
  CASP2 (NM_032982) Expression: −1.3
  CASP9 (NM_001229) Expression: 1.0
  CCL4L1 (NM_001001435) Expression: 1.2
  CDKN2A (NM_000077) Expression: −1.0
  CLK1 (NM_004071) Expression: −1.1
  COL1A1 (NM_000088) Expression: −1.0
  COL3A1 (NM_000090) Expression: −1.2
  COX1 (NP_536845) Expression: 1.5
  CREBBP (NM_004380) Expression: −1.1
  CRP (NM_000567) Expression: 1.0
  CYP19A1 (NM_000103) Expression: 1.0
  DDC (NM_000790) Expression: 1.0
  DUSP2 (NM_004418) Expression: 1.1
  EGF (NM_001963) Expression: 1.0
  EGR2 (NM_000399) Expression: 1.7
  FOS (NM_005252) Expression: −1.4
  FOXO3 (NM_001455) Expression: −1.3
  GADPH (NM_002046) Expression: −1.2
  GCH1 (NM_000161) Expression: −1.7
  GH1 (NM_000515) Expression: 1.3
  GPX1 (NM_000581) Expression: −1.1
  HBEGF (NM_001945) Expression: 1.8
  HGDC (SA_00105) Expression: 1.1
  HLA-DRA (NM_019111) Expression: 1.0
  HMOX1 (NM_002133) Expression: 1.0
  HPRT1 (NM_000194) Expression: 1.3
  HSPA1A (NM_005345) Expression: −1.3
  HSPA1B (NM_005346) Expression: −1.3
  HSPA1L (NM_005527) Expression: −1.1
  HSPA6 (NM_002155) Expression: −1.8
  IFI44 (NM_006417) Expression: 1.0
  IGF1 (NM_000618) Expression: 1.1
  IGF2 (NM_000612) Expression: 1.0
  IL1A (NM_000575) Expression: 1.0
  IL6 (NM_000600) Expression: 1.5
  IL8 (NM_000584) Expression: 1.0
  IL10 (NM_000572) Expression: 1.1
  IL11 (NM_000641) Expression: 1.1
  IL33 (NM_033439) Expression: 2.3
  IMMP1L (NM_144981) Expression: 1.2
  JUN (NM_002228) Expression: −1.1
  KIT (NM_000222) Expression: 1.4
  KL (NM_004795) Expression: 1.0
  KRAS (NM_004985) Expression: 1.0
  MAPK14 (NM_001315) Expression: −1.4
  MMP1 (NM_002421) Expression: 1.0
  NADSYN1 (NM_018161) Expression: −1.1
  NEIL1 (NM_024608) Expression: 1.0
  NFKB1 (NM_003998) Expression: −1.1
  NOS1 (NM_000620) Expression: 1.2
  NOS2 (NM_000625) Expression: 1.0
  NOS3 (NM_000603) Expression: −1.0
  PARP1 (NM_001618) Expression: 1.0
  PARP2 (NM_005484) Expression: 1.2
  PARP3 (NM_005485) Expression: 1.1
  PARP4 (NM_006437) Expression: 4.7
  PARP9 (NM_031458) Expression: −1.1
  PDGFRL (NM_006207) Expression: 1.2
  POT1 (NM_015450) Expression: 1.2
  PPARG (NM_015869) Expression: −1.2
  PPARGC1 (NM_013261) Expression: −1.2
  PPC (SA_00103) Expression: 1.0
  PTGS2 (NM_000963) Expression: 1.3
  RAP1A (NM_002884) Expression: −1.2
  RTC (SA_00104) Expression: 1.2
  S100A7 (NM_002963) Expression: 1.3
  SERPINB (NM_002575) Expression: 1.0
  SHC1 (NM_003029) Expression: −1.1
  SIRT1 (NM_012238) Expression: 1.1
  SIRT2 (NM_012237) Expression: −1.1
  SIRT3 (NM_012239) Expression: −1.2
  SIRT4 (NM_012240) Expression: 1.0
  SOD1 (NM_000454) Expression: −1.1
  SOD2 (NM_000636) Expression: 1.0
  TEP1 (NM_007110) Expression: 1.1
  TERF2 (NM_005652) Expression: −1.1
  TERT (NM_198255) Expression: −1.3
  TGFB1 (NM_000660) Expression: −1.2
  TIMM22 (NM_013337) Expression: −1.1
  TIMP3 (NM_000362) Expression: −1.3
  TINF2 (NM_012461) Expression: 1.1
  TNF (NM_000594) Expression: −2.6
  TOMM40 (NM_006114) Expression: −1.8
  TP53 (NM_000546) Expression: −1.3
  TPP1 (NM_000391) Expression: 1.0
  UBE2S (NM_014501) Expression: −1.3
  VEGFA (NM_003376) Expression: −1.3
